One may read the IC50 as the concentration needed to halve the response being measured. Read a high IC50 as weaker potency in that assay.

For the assay, the target named is CD73 (Homo sapiens (Human), UniProt P21589). Briefly: Biochemical assay: inhibition of CD73 activity (AMP hydrolysis, Malachite Green readout). To be noted: CD73 0.3208 nM, AMP 15 μM, 25 mM Tris-HCl pH 7.4, RT, absorbance 620 nm. How it is done: Example A1: Biochemical Assay
Assay Reaction Conditions
• Assay Volume: 70 μl • Reaction Volume: 50 μl • CD73: 0.3208 nM • AMP: 15 μM • Assay Buffer: 25 mM Tris-HCL, pH 7.4, 0.01% Brij-35, 0.01% BSA, 5 mM MgCl2 Assay Procedure:
Made dose titration of testing compounds in assay buffer, 10 points ½ log titrations in duplicates starting at 100 μM.
Added 25 μl of CD73 to each well for a final concentration of 320 pM.
Incubated at RT for 15 min.
Added 25 μl of AMP to each well for a final concentration of 15 μM.
Incubated at RT for 10 min.
Added 10 μl of Malachite Green Reagent A, incubate at RT for 10 min.
Added 10 of Malachite Green Reagent B, incubate at RT for 45 min.
Read the Absorbance on Envision plate reader using excitation filter: Cy5 […].
The ability of the compounds disclosed herein to inhibit CD73 activity was quantified and the respective IC50 values were determined. Table 2 provides the biochemical IC50 values of compounds disclosed herein.

CD73, sequence (P21589 27-574): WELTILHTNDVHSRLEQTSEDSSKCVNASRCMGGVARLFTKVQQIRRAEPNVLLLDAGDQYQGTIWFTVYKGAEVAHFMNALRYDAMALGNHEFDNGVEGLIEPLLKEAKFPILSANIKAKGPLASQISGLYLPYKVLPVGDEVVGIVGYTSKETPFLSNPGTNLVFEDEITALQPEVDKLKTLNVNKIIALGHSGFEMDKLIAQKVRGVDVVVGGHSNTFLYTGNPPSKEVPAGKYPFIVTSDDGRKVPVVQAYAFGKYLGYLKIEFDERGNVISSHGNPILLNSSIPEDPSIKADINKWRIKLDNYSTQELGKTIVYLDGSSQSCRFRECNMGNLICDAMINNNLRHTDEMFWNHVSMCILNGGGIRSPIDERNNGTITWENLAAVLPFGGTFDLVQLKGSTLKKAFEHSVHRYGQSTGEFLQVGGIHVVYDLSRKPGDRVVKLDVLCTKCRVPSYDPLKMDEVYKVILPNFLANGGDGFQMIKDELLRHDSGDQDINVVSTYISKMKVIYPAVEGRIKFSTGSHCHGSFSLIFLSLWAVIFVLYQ

In the case of `O=P(O)(O)C(CO)(CO)OC[C@H]1O[C@@H](n2ncc3c(NC4CCC45CCC5)nc(Cl)nc32)[C@H](O)[C@@H]1O` (mixture of isomers) [Example 204, rac-(2-(((2R,3S,4R,5R)-5-(6-chloro-4-(spiro[3.3]heptan-1-ylamino)-1H-pyrazolo[3,4-d]pyrimidin-1-yl)-3,4-dihydroxytetrahydrofuran-2-yl)methoxy)-1,3-dihydroxypropoan-2-yl)phosphonic acid], the IC50 was at most 0.1 µM.
On to `C[C@@H](OC[C@H]1O[C@@H](n2ncc3c(NC4CCCC4)nc(Cl)nc32)[C@H](O)[C@@H]1O)P(=O)(O)O` [Example 32, ((S)-1-(((2R,3S,4R,5R)-5-(6-chloro-4-(cyclopentylamino)-1H-pyrazolo[3,4-d]pyrimidin-1-yl)-3,4-dihydroxytetrahydrofuran-2-yl)methoxy)ehtyl)phosphonic acid], for which the IC50 was at most 0.1 µM.
`COC[C@](CO)(OC[C@H]1O[C@@H](n2ncc3c(NC4CCCC4)nc(Cl)nc32)[C@H](O)[C@@H]1O)P(=O)(O)O` [Example 150, ((R)-2-(((2R,3S,4R,5R)-5-(6-chloro-4-(cyclopentylamino)-1H-pyrazolo[3,4-d]pyrimidin-1-yl)-3,4-dihydroxytetrahydrofuran-2-yl)methoxy)-1-hydroxy-3-methoxypropan-2-yl)phosphonic acid]: the 50% inhibitory concentration (IC50) is at most 0.1 µM.
In turn, `C[C@H](P(=O)(O)O)S(=O)(=O)C[C@H]1O[C@@H](n2ncc3c(NC4CCCC4)nc(Cl)nc32)[C@H](O)[C@@H]1O` [Example 7, ((R)-1-((((2S,3S,4R,5R)-5-(6-Chloro-4-(cyclopentylamino)-1H-pyrazolo[3,4-d]pyrimidin-1-yl)-3,4-dihydroxytetrahydrofuran-2-yl)methyl)sulfonyl)ethyl)phosphonic acid] yielded an IC50 of at most 0.1 µM.
On to `NC(=O)OC[C@@](CO)(OC[C@H]1O[C@@H](n2ncc3c(NC4CCCC4)nc(Cl)nc32)[C@H](O)[C@@H]1O)P(=O)(O)O` (racemic) [Example 215, rac-((R)-1-(carbamoyloxy)-2-(((2S,3R,4S,5S)-5-(6-chloro-4-(cyclopentylamino)-1H-pyrazolo[3,4-d]pyrimidin-1-yl)-3,4-dihydroxytetrahydrofuran-2-yl)methoxy)-3-hydroxypropan-2-yl)phosphonic acid], for which the 50% inhibitory concentration (IC50) is at most 0.1 µM.
The compound `C[C@@](CO)(OC[C@H]1O[C@@H](n2ncc3c(NC4CCCC4)nc(OCCO)nc32)[C@H](O)[C@@H]1O)P(=O)(O)O` [Example 134, ((R)-2-(((2R,3S,4R,5R)-5-(4-(cyclopentylamino)-6-(2-hydroxyethoxy)-1H-pyrazolo[3,4-d]pyrimidin-1-yl)-3,4-dihydroxytetrahydrofuran-2-yl)methoxy)-1-hydroxypropan-2-yl)phosphonic acid] showed an IC50 of at most 0.1 µM.
For `C[C@@H](Nc1nc(Cl)nc2c1cnn2[C@@H]1O[C@H](COC(CO)(CO)P(=O)(O)O)[C@@H](O)[C@H]1O)c1ccc(F)cc1` (racemic) [Example 222, rac-(2-(((2R,3S,4R,5R)-5-(6-chloro-4-(((R)-1-(4-fluorophenyl)ethyl)amino)-1H-pyrazolo[3,4-d]pyrimidin-1-yl)-3,4-dihydroxytetrahydrofuran-2-yl)methoxy)-1,3-dihydroxypropan-2-yl)phosphonic acid], the IC50 was at most 0.1 µM.
In turn, `CS(=O)(=O)C(OC[C@H]1O[C@@H](n2ncc3c(NC4CCCC4)nc(Cl)nc32)[C@H](O)[C@@H]1O)P(=O)(O)O` (stereo partly drawn) [Example 38, ((((2R,3S,4R,5R)-5-(6-chloro-4-(cyclopentylamino)-1H-pyrazolo[3,4-d]pyrimidin-1-yl)-3,4-dihydroxytetrahydrofuran-2-yl)methoxy)(methylsulfonyl)methyl)phosphonic acid] showed an IC50 of 0.1 to 1 µM.
Compound `CC(C)(O)COc1nc(NC2CCCC2)c2cnn([C@@H]3O[C@H](COC(CO)(CO)P(=O)(O)O)[C@@H](O)[C@H]3O)c2n1` (racemic) [Example 175, rac-(2-(((2R,3S,4R,5R)-5-(4-(cyclopentylamino)-6-(2-hydroxy-2-methylpropoxy)-1H-pyrazolo[3,4-d]pyrimidin-1-yl)-3,4-dihydroxytetrahydrofuran-2-yl)methoxy)-1,3-dihydroxypropan-2-yl)phosphonic acid] had an IC50 of at most 0.1 µM.
As for `CC(CO)(OC[C@H]1O[C@@H](n2ncc3c(NC4CCCC4)nc(Cl)nc32)[C@H](O)[C@@H]1O)P(=O)(O)O` (stereo partly drawn) [Example 15, (2-(((2R,3S,4R,5R)-5-(6-Chloro-4-(cyclopentylamino)-1H-pyrazolo[3,4-d]pyrimidin-1-yl)-3,4-dihydroxytetrahydrofuran-2-yl)methoxy)-1-hydroxypropan-2-yl)phosphonic acid], the figure is at most 0.1 µM; as for `C[C@@H]1CCC[C@@H]1Nc1nc(Cl)nc2c1cnn2[C@@H]1O[C@H](COC(CO)(CO)P(=O)(O)O)[C@@H](O)[C@H]1O` (racemic) [Example 228, rac-(2-(((2R,3S,4R,5R)-5-(6-chloro-4-(((1S,2R)-2-methylcyclopentyl)amino)-1H-pyrazolo[3,4-d]pyrimidin-1-yl)-3,4-dihydroxytetrahydrofuran-2-yl)methoxy)-1,3-dihydroxypropan-2-yl)phosphonic acid], at most 0.1 µM; as for `O=P(O)(O)[C@H](CO)OC[C@H]1O[C@@H](n2nnc3c(NC4CCCC4)cc(Cl)nc32)[C@H](O)[C@@H]1O` [Example 144, ((R)-1-(((2R,3S,4R,5R)-5-(5-chloro-7-(cyclopentylamino)-3H-[1,2,3]triazolo[4,5-b]pyridin-3-yl)-3,4-dihydroxytetrahydrofuran-2-yl)methoxy)-2-hydroxyethyl)phosphonic acid], at most 0.1 µM.
Next, `O=P(O)(O)C(CO)OC[C@H]1O[C@@H](n2cnc3c(NC4CCCC4)nc(Cl)nc32)[C@H](O)[C@@H]1O` (stereo partly drawn) [Example 75, (1-(((2R,3S,4R,5R)-5-(2-chloro-6-(cyclopentylamino)-9H-purin-9-yl)-3,4-dihydroxytetrahydrofuran-2-yl)methoxy)-2-hydroxyethyl)phosphonic acid]: at most 0.1 µM; `O=P(O)(O)[C@](CO)(Cc1nn[nH]n1)OC[C@H]1O[C@@H](n2ncc3c(NCC4CC4)nc(Cl)nc32)[C@H](O)[C@@H]1O` (racemic) [Example 196, rac-((R)-2-(((2S,3R,4S,5S)-5-(6-chloro-4-((cyclopropylmethyl)amino)-1H-pyrazolo[3,4-d]pyrimidin-1-yl)-3,4-dihydroxytetrahydrofuran-2-yl)methoxy)-1-hydroxy-3-(2H-tetrazol-5-yl)propan-2-yl)phosphonic acid]: at most 0.1 µM.
`COC[C@@H](OC[C@H]1O[C@@H](n2ncc3c(NC4CCCC4)nc(Cl)nc32)[C@H](O)[C@@H]1O)P(=O)(O)O` [Example 64, ((S)-1-(((2R,3S,4R,5R)-5-(6-chloro-4-(cyclopentylamino)-1H-pyrazolo[3,4-d]pyrimidin-1-yl)-3,4-dihydroxytetrahydrofuran-2-yl)methoxy)-2-methoxyethyl)phosphonic acid] returned an IC50 of at most 0.1 µM.
Consider `C[C@H](Nc1nc(Cl)nc2c1cnn2[C@@H]1O[C@H](COC(C)(CO)P(=O)(O)O)[C@@H](O)[C@H]1O)c1ccc(F)cc1` (mixture of isomers) [Example 183, rac-(2-(((2R,3S,4R,5R)-5-(6-chloro-4-(((S)-1-(4-fluorophenyl)ethyl)amino)-1H-pyrazolo[3,4-d]pyrimidin-1-yl)-3,4-dihydroxytetrahydrofuran-2-yl)methoxy)-1-hydroxypropane-2-yl)phosphonic acid], for which the IC50 is at most 0.1 µM.
Next, `C[C@H](OC[C@H]1O[C@@H](n2ncc3c(NC4CCCC4)nc(Cl)nc32)[C@H](O)[C@@H]1O)P(=O)(O)O` [Example 33, ((R)-1-(((2R,3S,4R,5R)-5-(6-chloro-4-(cyclopentylamino)-1H-pyrazolo[3,4-d]pyrimidin-1-yl)-3,4-dihydroxytetrahydrofuran-2-yl)methoxy)ethyl)phosphonic acid]: at most 0.1 µM; `CC(CO)(OC[C@H]1O[C@@H](n2ncc3c(N[C@@H]4CC[C@H]5CCC[C@H]54)nc(Cl)nc32)[C@H](O)[C@@H]1O)P(=O)(O)O` (stereo partly drawn) [Example 133, (2-(((2R,3S,4R,5R)-5-(6-chloro-4-(((1R,3aR,6aR)-octahydropentalen-1-yl)amino)-1H-pyrazolo[3,4-d]pyrimidin-1-yl)-3,4-dihydroxytetrahydrofuran-2-yl)methoxy)-1-hydroxypropan-2-yl)phosphonic aci]: at most 0.1 µM.
On to `O=P(O)(O)C(CO)(CO)OC[C@H]1O[C@@H](n2ncc3c(N[C@@H]4CC[C@H]5CCC[C@H]54)nc(Cl)nc32)[C@H](O)[C@@H]1O` (racemic) [Example 164, rac-(2-(((2R,3S,4R,5R)-5-(6-chloro-4-(((1R,3aR,6aR)-octahydropentalen-1-yl)amino)-1H-pyrazolo[3,4-d]pyrimidin-1-yl)-3,4-dihydroxytetrahydrofuran-2-yl)methoxy)-1,3-dihydroxypropan-2-yl)phosphonic acid], for which the IC50 was at most 0.1 µM.
`O=P(O)(O)C(CO)(CO)OC[C@H]1O[C@@H](n2ncc3c(N[C@@H]4CCc5ccccc54)nc(OCCO)nc32)[C@H](O)[C@@H]1O` [Example 100, (2-(((2R,3S,4R,5R)-5-(4-(((R)-2,3-dihydro-1H-inden-1-yl)amino)-6-(2-hydroxyethoxy)-1H-pyrazolo[3,4-d]pyrimidin-1-yl)-3,4-dihydroxytetrahydrofuran-2-yl)methoxy)-1,3-dihydroxypropan-2-yl)phosphonic acid] came in with a half-inhibitory concentration (IC50) of at most 0.1 µM.

(Values after patent US11325938B2, “CD73 inhibitors” (ORIC Pharmaceuticals, Inc., priority 2018, dated 2022).)
